Key:
Test in all cases: Histone peptide microarray
Assay type in all cases: binding, human
Conditions in all cases: sheet "Array Heatmap"
PHF8 = system: PHF8
Method in brief: (§1)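 Histone peptide library (293 synthetic peptides, single/combinatorial PTMs) arrayed and probed with 0.5 μM purified GST-PHD domain; optimized protocol; quadruplicate mean and SD reported.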

RAG2 = system: RAG2
Method in brief: as §1

DIDO1 = system: DIDO1
Method in brief: as §1

KDM5B (1) = system: KDM5B (1)
Method in brief: as §1

KDM5A (3) = system: KDM5A (3)
Method in brief: as §1

MORC3 (CW) = system: MORC3 (CW)
Method in brief: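 GST-PHD reader, 0.5 μM, probed on 293-peptide histone array (single/combinatorial PTMs); optimized array protocol; signal = mean ± SD, n = 4.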

PHF2 = system: PHF2
Method in brief: as §1

TAF3 = system: TAF3
Method in brief: as §1

CHD5 (PCC) = system: CHD5 (PCC)
Method in brief: as §1

BAZ2B = system: BAZ2B
Method in brief: as §1

ING2 = system: ING2
Method in brief: as §1

KDM5A (1) = system: KDM5A (1)
Method in brief: as §1

CHD4 (PPCC) = system: CHD4 (PPCC)
Method in brief: as §1

CHD5 (PPCC) = system: CHD5 (PPCC)
Method in brief: as §1

PHRF1 (RP) = system: PHRF1 (RP)
Method in brief: as §1

AIRE (PP) = system: AIRE (PP)
Method in brief: as §1

ING4 = system: ING4
Method in brief: as §1

SP140L = system: SP140L
Method in brief: as §1

ING3 = system: ING3
Method in brief: as §1

PHF13 = system: PHF13
Method in brief: as §1

TRIM66 (PB) = system: TRIM66 (PB)
Method in brief: as §1

KDM7A = system: KDM7A
Method in brief: as §1

BPTF (PB) = system: BPTF (PB)
Method in brief: as §1

MLL5 = system: MLL5
Method in brief: as §1

DPF2 (PPC2W2) = system: DPF2 (PPC2W2)
Method in brief: as §1

ING1 = system: ING1
Method in brief: as §1

PHF21A = system: PHF21A
Method in brief: as §1

KDM5B (3) = system: KDM5B (3)
Method in brief: as §1

PHF23 = system: PHF23
Method in brief: as §1

KDM4C (TTP) = system: KDM4C (TTP)
Method in brief: as §1

ING5 = system: ING5
Method in brief: as §1

H3K23ac (1-32): H3 1-32
Array Heatmap value (peptide array signal) (PHF8; PHF8, each array performed twice, total n = 4): 0.3314 | Array Heatmap value (peptide array signal) (RAG2; RAG2, each array performed twice, total n = 4): 0.2372 | Array Heatmap value (peptide array signal) (DIDO1; DIDO1, each array performed twice, total n = 4): 0.6401 | Array Heatmap value (peptide array signal) (KDM5B (1); KDM5B (1), each array performed twice, total n = 4): 0.696 | Array Heatmap value (peptide array signal) (KDM5A (3); KDM5A (3), each array performed twice, total n = 4): 0.4863 | Array Heatmap value (peptide array signal) (MORC3 (CW); MORC3 (CW), each array performed twice, total n = 4): 0.4909 | Array Heatmap value (peptide array signal) (PHF2; PHF2, each array performed twice, total n = 4): 0.4393 | Array Heatmap value (peptide array signal) (TAF3; TAF3, each array performed twice, total n = 4): 0.2562 | Array Heatmap value (peptide array signal) (CHD5 (PCC); CHD5 (PCC), each array performed twice, total n = 4): 0.6958 | Array Heatmap value (peptide array signal) (BAZ2B; BAZ2B, each array performed twice, total n = 4): 0.4309 | Array Heatmap value (peptide array signal) (ING2; ING2, each array performed twice, total n = 4): 0.596 | Array Heatmap value (peptide array signal) (KDM5A (1); KDM5A (1), each array performed twice, total n = 4): 0.4665 | Array Heatmap value (peptide array signal) (CHD4 (PPCC); CHD4 (PPCC), each array performed twice, total n = 4): 0.5377 | Array Heatmap value (peptide array signal) (CHD5 (PPCC); CHD5 (PPCC), each array performed twice, total n = 4): 0.5376 | Array Heatmap value (peptide array signal) (PHRF1 (RP); PHRF1 (RP), each array performed twice, total n = 4): 0.68 | Array Heatmap value (peptide array signal) (AIRE (PP); AIRE (PP), each array performed twice, total n = 4): 0.5525 | Array Heatmap value (peptide array signal) (ING4; ING4, each array performed twice, total n = 4): 0.4368 | Array Heatmap value (peptide array signal) (SP140L; SP140L, each array performed twice, total n = 4): 0.3597 | Array Heatmap value (peptide array signal) (ING3; ING3, each array performed twice, total n = 4): 0.4476 | Array Heatmap value (peptide array signal) (PHF13; PHF13, each array performed twice, total n = 4): 0.5924 | Array Heatmap value (peptide array signal) (TRIM66 (PB); TRIM66 (PB), each array performed twice, total n = 4): 0.6504 | Array Heatmap value (peptide array signal) (KDM7A; KDM7A, each array performed twice, total n = 4): 0.3346 | Array Heatmap value (peptide array signal) (BPTF (PB); BPTF (PB), each array performed twice, total n = 4): 0.3332 | Array Heatmap value (peptide array signal) (MLL5; MLL5, each array performed twice, total n = 4): 0.5116 | Array Heatmap value (peptide array signal) (DPF2 (PPC2W2); DPF2 (PPC2W2), each array performed twice, total n = 4): 0.7046 | Array Heatmap value (peptide array signal) (ING1; ING1, each array performed twice, total n = 4): 0.5079 | Array Heatmap value (peptide array signal) (PHF21A; PHF21A, each array performed twice, total n = 4): 0.4363 | Array Heatmap value (peptide array signal) (KDM5B (3); KDM5B (3), each array performed twice, total n = 4): 0.4657 | Array Heatmap value (peptide array signal) (PHF23; PHF23, each array performed twice, total n = 4): 0.526 | Array Heatmap value (peptide array signal) (KDM4C (TTP); KDM4C (TTP), each array performed twice, total n = 4): 0.4876 | Array Heatmap value (peptide array signal) (ING5; ING5, each array performed twice, total n = 4): 0.3453

H3K23me1 15-34: H3 15-34
Array Heatmap signal, PHF8 (PHF8; GST-tagged PHF8, arrays performed twice, total replicate number n = 4): 0.3239 | Array Heatmap signal, RAG2 (RAG2; GST-tagged RAG2, arrays performed twice, total replicate number n = 4): 0.2067 | Array Heatmap signal, DIDO1 (DIDO1; GST-tagged DIDO1, arrays performed twice, total replicate number n = 4): 0.5926 | Array Heatmap signal, KDM5B (1) (KDM5B (1); GST-tagged KDM5B (1), arrays performed twice, total replicate number n = 4): 0.6704 | Array Heatmap signal, KDM5A (3) (KDM5A (3); GST-tagged KDM5A (3), arrays performed twice, total replicate number n = 4): 0.3565 | Array Heatmap signal, MORC3 (CW) (MORC3 (CW); GST-tagged MORC3 (CW), arrays performed twice, total replicate number n = 4): 0.2751 | Array Heatmap signal, PHF2 (PHF2; GST-tagged PHF2, arrays performed twice, total replicate number n = 4): 0.3956 | Array Heatmap signal, TAF3 (TAF3; GST-tagged TAF3, arrays performed twice, total replicate number n = 4): 0.2405 | Array Heatmap signal, CHD5 (PCC) (CHD5 (PCC); GST-tagged CHD5 (PCC), arrays performed twice, total replicate number n = 4): 0.7691 | Array Heatmap signal, BAZ2B (BAZ2B; GST-tagged BAZ2B, arrays performed twice, total replicate number n = 4): 0.4158 | Array Heatmap signal, ING2 (ING2; GST-tagged ING2, arrays performed twice, total replicate number n = 4): 0.5717 | Array Heatmap signal, KDM5A (1) (KDM5A (1); GST-tagged KDM5A (1), arrays performed twice, total replicate number n = 4): 0.4342 | Array Heatmap signal, CHD4 (PPCC) (CHD4 (PPCC); GST-tagged CHD4 (PPCC), arrays performed twice, total replicate number n = 4): 0.5163 | Array Heatmap signal, CHD5 (PPCC) (CHD5 (PPCC); GST-tagged CHD5 (PPCC), arrays performed twice, total replicate number n = 4): 0.4785 | Array Heatmap signal, PHRF1 (RP) (PHRF1 (RP); GST-tagged PHRF1 (RP), arrays performed twice, total replicate number n = 4): 0.3534 | Array Heatmap signal, AIRE (PP) (AIRE (PP); GST-tagged AIRE (PP), arrays performed twice, total replicate number n = 4): 0.4449 | Array Heatmap signal, ING4 (ING4; GST-tagged ING4, arrays performed twice, total replicate number n = 4): 0.3978 | Array Heatmap signal, SP140L (SP140L; GST-tagged SP140L, arrays performed twice, total replicate number n = 4): 0.3205 | Array Heatmap signal, ING3 (ING3; GST-tagged ING3, arrays performed twice, total replicate number n = 4): 0.3997 | Array Heatmap signal, PHF13 (PHF13; GST-tagged PHF13, arrays performed twice, total replicate number n = 4): 0.5337 | Array Heatmap signal, TRIM66 (PB) (TRIM66 (PB); GST-tagged TRIM66 (PB), arrays performed twice, total replicate number n = 4): 0.5248 | Array Heatmap signal, KDM7A (KDM7A; GST-tagged KDM7A, arrays performed twice, total replicate number n = 4): 0.3872 | Array Heatmap signal, BPTF (PB) (BPTF (PB); GST-tagged BPTF (PB), arrays performed twice, total replicate number n = 4): 0.3041 | Array Heatmap signal, MLL5 (MLL5; GST-tagged MLL5, arrays performed twice, total replicate number n = 4): 0.5166 | Array Heatmap signal, DPF2 (PPC2W2) (DPF2 (PPC2W2); GST-tagged DPF2 (PPC2W2), arrays performed twice, total replicate number n = 4): 0.6371 | Array Heatmap signal, ING1 (ING1; GST-tagged ING1, arrays performed twice, total replicate number n = 4): 0.468 | Array Heatmap signal, PHF21A (PHF21A; GST-tagged PHF21A, arrays performed twice, total replicate number n = 4): 0.4373 | Array Heatmap signal, KDM5B (3) (KDM5B (3); GST-tagged KDM5B (3), arrays performed twice, total replicate number n = 4): 0.4273 | Array Heatmap signal, PHF23 (PHF23; GST-tagged PHF23, arrays performed twice, total replicate number n = 4): 0.4553 | Array Heatmap signal, KDM4C (TTP) (KDM4C (TTP); GST-tagged KDM4C (TTP), arrays performed twice, total replicate number n = 4): 0.4583 | Array Heatmap signal, ING5 (ING5; GST-tagged ING5, arrays performed twice, total replicate number n = 4): 0.3097

From paper PMC6979384, “Characterization of the plant homeodomain (PHD) reader family for their histone tail interactions” (Epigenetics & Chromatin, 2020)
